Consider 1 molecule from BindingDB's records for doi:10.1016/j.bmcl.2009.04.039 (Johnson & Johnson Pharmaceutical Research & Development, 2009).

The target of the test is T1, Signal transducer and activator of transcription 5A (Homo sapiens, UniProt P42229).
T1 sequence (P42229 whole entry): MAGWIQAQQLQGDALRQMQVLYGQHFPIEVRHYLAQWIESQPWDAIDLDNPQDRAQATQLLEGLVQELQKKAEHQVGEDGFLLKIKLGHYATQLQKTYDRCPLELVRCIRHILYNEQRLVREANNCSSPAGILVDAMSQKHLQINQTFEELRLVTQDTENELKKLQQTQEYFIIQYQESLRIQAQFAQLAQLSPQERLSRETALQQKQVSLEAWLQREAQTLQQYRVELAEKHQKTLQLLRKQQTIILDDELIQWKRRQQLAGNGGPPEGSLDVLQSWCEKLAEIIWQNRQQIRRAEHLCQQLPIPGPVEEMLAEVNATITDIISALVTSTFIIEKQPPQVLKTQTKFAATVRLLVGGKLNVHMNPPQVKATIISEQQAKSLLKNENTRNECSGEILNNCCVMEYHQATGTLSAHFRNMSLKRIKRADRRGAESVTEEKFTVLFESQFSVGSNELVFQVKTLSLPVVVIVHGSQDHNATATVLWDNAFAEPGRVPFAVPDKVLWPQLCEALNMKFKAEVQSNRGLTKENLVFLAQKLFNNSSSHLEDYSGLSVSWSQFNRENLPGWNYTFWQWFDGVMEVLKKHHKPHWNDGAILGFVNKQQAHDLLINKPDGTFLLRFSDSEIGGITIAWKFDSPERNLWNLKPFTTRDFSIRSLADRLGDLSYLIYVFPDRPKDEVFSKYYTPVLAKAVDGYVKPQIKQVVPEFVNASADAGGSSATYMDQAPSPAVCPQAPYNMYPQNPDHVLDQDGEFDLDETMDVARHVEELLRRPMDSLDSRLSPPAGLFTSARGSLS
Put plainly: Inhibition of STAT5 phosphorylation in IL2-stimulated healthy human T cells by Western blotting. In general terms: In western blotting, separated proteins are transferred to a membrane and probed.

SMILES strings stand for the structures.

The IC50 is the concentration that inhibits the measured activity by half. Read a low IC50 as inhibition by little substance. Consider `O=C1NCc2c1c1c3ccccc3n3c1c1c2c2ccccc2n1C[C@@H](O)[C@@H](O)C3` [12,13-(2,3-Cis-dihyroxy-1,4-butyl)-6,7,12,13-tetrahydro-5-oxo-5H-indolo[2,3-a]pyrrolo[3,4-c]carbazole], for which the IC50 is 0.689 µM.
